Like-named read-outs stand apart in the source and are kept apart here.
What was measured:
5-HT2B receptor = biological target: T1, 5-HT2B receptor (Homo sapiens, UniProt P41595); experiment: cell-based
T1 construct: host or cells: HEK293
Experimental: (§1) Functional Assays at 5-HT2A, 5-HT2B, and 5-HT1A. Agonist activity at 5-HT2A, 5-HT2B, and 5-HT1A receptors was determined using a FLIPR Ca^2+ flux assay at WuXi AppTec (Hong Kong) Limited according to their standard protocols. Briefly, stably transfected cells expressing the receptor of interest (HEK293 for 5-HT2A and 5-HT2B; CHO cells for 5-HT1A) were grown and plated in a 384 well plate and incubated at 37° C. and 5% CO2 overnight. A solution of 250 mM probenecid in 1 mL FLIPR assay buffer was prepared fresh. This was combined with a fluorescent dye (Fluo-4 Direct™) to make a final assay concentration of 2.5 mM. […] The fluorescent dye was then added to the assay plate along with assay buffer to a final volume of 40 μL. The cell plate was incubated for 50 min at 37° C. and 5% CO2 and placed into the FLIPR Tetra along with the compound plate. 10 μL of references and compounds were then transferred from the compound plate into the cell plate and the fluorescent signal was read.

5-HT1A receptor = biological target: T2, 5-HT1A receptor (Homo sapiens, UniProt P08908); experiment: cell-based
T2 construct: host or cells: CHO cells
T2 sequence (P08908 1-422): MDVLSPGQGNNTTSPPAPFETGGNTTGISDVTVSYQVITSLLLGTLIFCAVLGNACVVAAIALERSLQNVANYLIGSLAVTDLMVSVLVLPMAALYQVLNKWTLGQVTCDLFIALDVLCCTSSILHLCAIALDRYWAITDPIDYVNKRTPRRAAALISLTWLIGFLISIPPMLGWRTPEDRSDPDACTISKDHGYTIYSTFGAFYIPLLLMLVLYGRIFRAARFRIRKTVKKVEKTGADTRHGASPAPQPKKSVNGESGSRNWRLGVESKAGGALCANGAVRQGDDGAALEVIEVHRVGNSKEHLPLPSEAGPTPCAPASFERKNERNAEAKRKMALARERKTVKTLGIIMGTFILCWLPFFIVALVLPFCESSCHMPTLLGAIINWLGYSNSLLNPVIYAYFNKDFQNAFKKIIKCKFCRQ
Experimental: as §1

5-HT1B receptor = 5-HT1B receptor (Homo sapiens, UniProt P28222); experiment: cAMP accumulation agonist assay at 5-HT1B; format: cell-based
Chain of 5-HT1B receptor (P28222 whole entry): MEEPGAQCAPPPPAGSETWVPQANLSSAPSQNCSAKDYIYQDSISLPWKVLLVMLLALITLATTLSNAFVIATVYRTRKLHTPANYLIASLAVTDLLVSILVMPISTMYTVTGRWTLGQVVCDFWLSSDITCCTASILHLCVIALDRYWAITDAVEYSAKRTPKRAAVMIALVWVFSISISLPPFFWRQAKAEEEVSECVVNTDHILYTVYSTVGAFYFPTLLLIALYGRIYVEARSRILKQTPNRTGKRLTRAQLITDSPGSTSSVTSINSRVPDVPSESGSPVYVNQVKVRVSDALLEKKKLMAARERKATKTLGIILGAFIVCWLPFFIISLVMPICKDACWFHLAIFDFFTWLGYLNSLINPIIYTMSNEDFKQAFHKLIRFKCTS
Experimental: Disclosed compounds were tested for agonist activity at several serotonin receptor subtypes (5-HT2A, […], 5-HT2C, and 5-HT1A) using Ca^2+ flux functional assays and the 5-HT1B receptor using a cAMP accumulation assay, with the results summarized in Table 4. […] Potent agonist activity was also observed at the other serotonin receptors tested, although the selectivity profile among the receptors varied across compounds. […]. However, at the same time, the N-propyl compounds were more efficacious agonists at 5-HT2B than the corresponding N-methyl compounds. The selectivity of disclosed compounds for 5-HT2A over 5-HT2C and 5-HT1A was less predictable and varied widely across compounds, ranging from ˜1:6 to ˜20:1 (2C/2A) in the case of 5-HT2C and from ˜1:4 to >100:1 (1A/2A) in the case of 5-HT1A. […] An azetidinyl amide substituent tended to increase potency at 5-HT1A relative to 5-HT2A.
Functional Assay at 5-HT1B. Agonist activity at 5-HT1B was determined using a cAMP accumulation protocol at WuXi AppTec (Hong Kong) Limited according to their standard protocols. Briefly, stably transfected cells were plated in an OptiPlate-384 well plate, incubated at RT for 60 mins, and cAMP standard solution (800 nM, 10 μL) was added to the blank well. Then, 10 μL detection reagent was added to each well, the plate incubated for 60 mins at RT, and the plate read using EnVision.

5-HT2A receptor [1] = biological target: T3, 5-HT2A receptor (Homo sapiens, UniProt P28223); experiment: cell-based; format: cell-based
T3 construct: host or cells: HEK293
T3 sequence (P28223 whole entry): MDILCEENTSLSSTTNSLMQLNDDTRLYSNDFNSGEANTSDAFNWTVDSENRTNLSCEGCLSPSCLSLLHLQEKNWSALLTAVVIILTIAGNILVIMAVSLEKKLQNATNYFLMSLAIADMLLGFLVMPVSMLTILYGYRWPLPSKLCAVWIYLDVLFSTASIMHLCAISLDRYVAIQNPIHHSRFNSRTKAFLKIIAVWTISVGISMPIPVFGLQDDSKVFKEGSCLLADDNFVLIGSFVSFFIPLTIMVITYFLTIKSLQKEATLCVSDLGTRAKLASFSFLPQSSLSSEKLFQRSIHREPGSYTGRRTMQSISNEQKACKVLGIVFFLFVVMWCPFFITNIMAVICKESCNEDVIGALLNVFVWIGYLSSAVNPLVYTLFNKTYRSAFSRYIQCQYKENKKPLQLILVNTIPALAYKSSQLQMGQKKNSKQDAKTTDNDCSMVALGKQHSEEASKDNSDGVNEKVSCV
Experimental: as §1

5-HT2A receptor [2] = biological target: T3, 5-HT2A receptor; experiment: biochemical; format: binding
Experimental: Affinity of the test compounds for the 5-HT2A receptor was determined in radioligand binding experiments with [^3H]ketanserin by WuXi AppTec (Hong Kong) Limited, using methods adapted from the literature and under conditions described in Table 1.

[3] = Metabolic stability in human liver microsomes (HLM); format: in vitro ADME; conditions: both sexes, human, pH 7.4, 0.50 mg protein per mL
Excerpt: HLM Stability. Pooled HLM from adult male and female donors (Corning 452117) were used.

[4] = Ca^2+ flux, agonist, read-out: 5-HT2B EC50
[5] = Ca^2+ flux, agonist, read-out: 5-HT1A EC50
[6] = cAMP, agonist, read-out: 5-HT1B EC50
[7] = Ca^2+ flux, agonist, read-out: 5-HT2A EC50
[8] = 1 nM [^3H]ketanserin, HEK293 stable cell line, read-out: 5-HT2A Receptor Ki (nM) ([^3H]ketanserin)

T1 sequence (P41595 whole entry): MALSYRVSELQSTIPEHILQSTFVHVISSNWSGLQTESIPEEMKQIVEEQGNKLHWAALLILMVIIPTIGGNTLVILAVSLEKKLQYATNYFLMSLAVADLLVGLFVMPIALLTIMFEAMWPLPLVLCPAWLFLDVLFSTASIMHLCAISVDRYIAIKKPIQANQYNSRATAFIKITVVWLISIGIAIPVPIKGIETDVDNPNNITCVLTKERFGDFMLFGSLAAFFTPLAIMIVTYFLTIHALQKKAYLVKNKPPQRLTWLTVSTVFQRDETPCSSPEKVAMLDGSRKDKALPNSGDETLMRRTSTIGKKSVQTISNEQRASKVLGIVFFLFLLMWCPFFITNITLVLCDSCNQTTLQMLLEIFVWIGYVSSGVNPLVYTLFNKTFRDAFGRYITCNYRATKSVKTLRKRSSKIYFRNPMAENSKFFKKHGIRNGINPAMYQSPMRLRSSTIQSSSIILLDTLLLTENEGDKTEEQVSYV

| Compound | EC50 (5-HT2B receptor) [nM] | 5-HT2B % Act @ Max Dose (5-HT2B receptor; Ca^2+ flux, agonist) [%] | EC50 (5-HT1A receptor) [nM] | 5-HT1A % Act @ Max Dose (5-HT1A receptor; Ca^2+ flux, agonist) [%] | EC50 (5-HT1B receptor) [nM] | 5-HT1B % Act @ Max Dose (5-HT1B receptor; cAMP, agonist) [%] | EC50 (5-HT2A receptor [1]) [nM] | 5-HT2A % Act @ Max Dose (5-HT2A receptor [1]; Ca^2+ flux, agonist) [%] | Ki (5-HT2A receptor [2]) [nM] | half-life at 1 μM ([3]; microsomes) [min] | microsomal CLint at 1 μM ([3]; microsomes) [µL/min/mg] | EC50 (5-HT2B receptor; [4]) [nM] | EC50 (5-HT1A receptor; [5]) [nM] | EC50 (5-HT1B receptor; [6]) [nM] | EC50 (5-HT2A receptor [1]; [7]) [nM] | Ki (5-HT2A receptor [2]; [8]) [nM] | half-life at 1 μM ([3]; pooled human liver microsomes) [min] | microsomal CLint at 1 μM ([3]; pooled human liver microsomes) [µL/min/mg] | selectivity for 5-HT2A compared to the other serotonin receptors tested (in words) (5-HT2A receptor [1]; functional agonist assays) |
| --- | --- | --- | --- | --- | --- | --- | --- | --- | --- | --- | --- | --- | --- | --- | --- | --- | --- | --- | --- |
| CCN(CC)C(=O)[C@@H]1C=C2c3cccc4[nH]c(Br)c(c34)C[C@H]2N(C)C1 [Compound 35, (6aR,9R)-5-bromo-N,N-diethyl-7-methyl-4,6,6a,7,8,9-hexahydroindolo[4,3-fg]quinoline-9-carboxamide] | > 10000 | −0.13 | > 3160 | −1.58 | 214 | 76.8 | 66.4 | 67.74 | 0.73 | 24.2 | 57.4 | – | – | – | – | – | – | – | – |
| CN1C[C@H](C(=O)N(CCF)CCF)C=C2c3cccc4[nH]cc(c34)C[C@H]21 [Compound 38, (6aR,9R)—N,N-bis(2-fluoroethyl)-7-methyl-4,6,6a,7,8,9-hexahydroindolo[4,3-fg]quinoline-9-carboxamide] | – | 28.13 | – | 90.5 | – | 94.72 | – | 93.39 | – | – | – | 22.1 | 3.45 | 4.65 | 11.8 | 0.84 | 64 | 21.6 | – |
| CCN(CC)C(=O)[C@@H]1C=C2c3cccc4[nH]cc(c34)C[C@H]2N(CCF)C1 [Compound 39, (6aR,9R)—N,N-diethyl-7-(2-fluoroethyl)-4,6,6a,7,8,9-hexahydroindolo[4,3-fg]quinoline-9-carboxamide] | – | 85.46 | – | 91.21 | – | 99.00 | – | 95.52 | – | – | – | 137 | 239 | 1100 | 16.2 | 4.54 | 31.7 | 43.8 | – |
| CC[C@@H](C)NC(=O)[C@@H]1C=C2c3cccc4[nH]cc(c34)C[C@H]2N(CCC(F)(F)F)C1 [Compound 40, (6aR,9R)—N—((R)-sec-butyl)-7-(3,3,3-trifluoropropyl)-4,6,6a,7,8,9-hexahydroindolo[4,3-fg]quinoline-9-carboxamide] | – | 8.46 | – | 22.27 | – | 62.14 | – | 45.12 | – | – | – | > 10000 | > 10000 | 8310 | 169 | 37.7 | 3.2 | 435 | highly selective |
| CCN(CC)C(=O)[C@@H]1C=C2c3cccc4[nH]c(Br)c(c34)C[C@H]2N(CCCF)C1 [Compound 41, (6aR,9R)-5-bromo-N,N-diethyl-7-(3-fluoropropyl)-4,6,6a,7,8,9-hexahydroindolo[4,3-fg]quinoline-9-carboxamide] | – | 84.51 | – | 39.75 | – | 61.49 | – | 75.44 | – | – | – | 509 | > 10000 | > 10000 | 116 | 0.58 | 10.7 | 130 | – |

From patent US20230116703A1, “NOVEL ERGOLINES AND METHODS OF TREATING MOOD DISORDERS” (priority 2021, published 2023)
